Results on 22 compounds are retold here after patent publication US8273774B2, “Phenoxypyridinylamide compounds” (AstraZeneca AB, priority 2008, dated 2012).

The target of this assay is recombinant Human Phosphodiesterase B2 (PDE4B2) (Homo sapiens, UniProt Q07343). Nature of the assay: Human Phosphodiesterase B2 Radiometric Assay. The assay is classed as biochemical. Particulars: 0.1 μg/mL recombinant PDE4B2; preincubated at 30 C for 30 min; [3H]cyclic AMP 8 nM, stopped after 20 min; yttrium silicate SPA beads; read-out: PDE4B2 pIC50 (converted). Here is the method: Human Phosphodiesterase B2 Radiometric Assay
Sequence of recombinant Human Phosphodiesterase B2 (PDE4B2) (Q07343 1-564 isoform Q07343-2): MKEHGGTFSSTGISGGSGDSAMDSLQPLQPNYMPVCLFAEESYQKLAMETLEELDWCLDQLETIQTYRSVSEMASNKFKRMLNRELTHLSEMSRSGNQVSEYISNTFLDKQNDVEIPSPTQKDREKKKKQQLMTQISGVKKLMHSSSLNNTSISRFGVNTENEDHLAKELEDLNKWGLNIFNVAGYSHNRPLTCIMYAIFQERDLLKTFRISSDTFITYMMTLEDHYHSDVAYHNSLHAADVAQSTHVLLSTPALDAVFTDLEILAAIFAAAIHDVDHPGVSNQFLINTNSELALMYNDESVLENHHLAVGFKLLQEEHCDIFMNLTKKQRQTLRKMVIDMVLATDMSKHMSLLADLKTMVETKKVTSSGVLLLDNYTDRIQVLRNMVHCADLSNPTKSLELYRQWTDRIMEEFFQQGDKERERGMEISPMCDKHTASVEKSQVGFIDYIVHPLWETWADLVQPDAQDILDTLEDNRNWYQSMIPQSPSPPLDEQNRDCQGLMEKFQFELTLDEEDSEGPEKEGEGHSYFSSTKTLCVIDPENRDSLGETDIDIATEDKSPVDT
The assay uses recombinant Human Phosphodiesterase B2 (PDE4B2) produced in house (PrAZL0163), stored at −20° C. This assay is based on the observation that 5′AMP, the product of the reaction catalysed by PDE4, binds preferentially to yttrium silicate SPA beads (Amersham Biosciences, UK) compared to the substrate, cAMP. Compounds at the appropriate concentration were preincubated at 30 C for 30 min with an assay buffer containing 50 mM HEPES (pH 7.5), 8.3 mM MgCl2, 1.7 mM EGTA, 0.01% (w/v) Brij®35 and 0.1 μg/mL recombinant PDE4B2. The reaction was started by the addition of [3H]cyclic AMP to give a final concentration of 8 nM, and was stopped 20 min after the addition of the substrate by the addition of yttrium silicate SPA beads containing 18 mM Zn SO4. Bound […] was measured using a Topcount NXT (Packard Bioscience, UK). pIC50 values (presented in Table 2) were determined using Xlfit3 curve fitting, using model 205.

As for `Cc1cc(C(=O)N[C@H]2CC[C@@H](NC(=O)c3cc(F)cnc3Oc3cccc(-c4ccc(CCCN5CCCC5)cc4)c3)CC2)nn1C` [Example 79, N-((1s,4s)-4-(1,5-dimethyl-1H-pyrazole-3-carboxamido)cyclohexyl)-5-fluoro-2-(4′-(3-(pyrrolidin-1-yl)propyl)biphenyl-3-yloxy)nicotinamide], the IC50 is 0.0316 nM. `C[C@@H]1CN(CCCc2ccc(-c3cccc(Oc4ncc(F)cc4C(=O)N[C@H]4CC[C@@H](NC(=O)c5cc6n(n5)CCCO6)CC4)c3)cc2)C[C@H](C)N1` [Example 168, N-((1s,4s)-4-(2-(4′-(3-((3S,5R)-3,5-Dimethylpiperazin-1-yl)propyl)biphenyl-3-yloxy)-5-fluoronicotinamido)cyclohexyl)-6,7-dihydro-5H-pyrazolo[5,1-b][1,3]oxazine-2-carboxamide]: the IC50 was 0.0501 nM. As for `C[C@@H]1CN(CCCc2ccc(-c3cccc(Oc4ncc(F)cc4C(=O)N[C@H]4CC[C@@H](NC(=O)c5nc(CO)cs5)CC4)c3)cc2)C[C@H](C)N1` [Example 150, N-((1s,4s)-4-(2-(4′-(3-((3S,5R)-3,5-dimethylpiperazin-1-yl)propyl)biphenyl-3-yloxy)-5-fluoronicotinamido)cyclohexyl)-4-(hydroxymethyl)thiazole-2-carboxamide], the IC50 was 0.0794 nM.

In the case of `O=C(N[C@H]1CC[C@@H](NC(=O)c2cc(F)cnc2Oc2cccc(-c3ccc(O)cc3CN3CCOCC3)c2)CC1)c1ccccc1O` [Example 38, 5-fluoro-2-(4′-hydroxy-2′-(morpholinomethyl)biphenyl-3-yloxy)-N-((1s,4s)-4-(2-hydroxybenzamido)cyclohexyl)nicotinamide], the IC50 was 0.0398 nM. Under `CC(C)c1nc(C(=O)N[C@H]2CC[C@@H](NC(=O)c3cc(F)cnc3Oc3cccc(-c4ccc(O)c(CN5C[C@@H](C)N[C@@H](C)C5)c4)c3)CC2)cs1` [Example 90, N-((1s,4s)-4-(2-(3′-(((3S,5R)-3,5-dimethylpiperazin-1-yl)methyl)-4′-hydroxybiphenyl-3-yloxy)-5-fluoronicotinamido)cyclohexyl)-2-isopropylthiazole-4-carboxamide] stands 0.2 nM; under `Cc1nc(C(=O)N[C@H]2CC[C@@H](NC(=O)c3cc(F)cnc3Oc3cccc(-c4cccc(CCCN5CCNCC5)c4)c3)CC2)cs1` [Example 131, N-((1s,4s)-4-(5-fluoro-2-(3′-(3-(piperazin-1-yl)propyl)biphenyl-3-yloxy)nicotinamido)cyclohexyl)-2-methylthiazole-4-carboxamide], 0.126 nM; under `Cc1csc(C(=O)N[C@H]2CC[C@@H](NC(=O)c3cc(F)cnc3Oc3cccc(-c4ccc(CN5C[C@@H](C)N[C@@H](C)C5)cc4CN4CCSCC4)c3)CC2)n1` [Example 192, N-((1s,4s)-4-(2-(4′-(((3S,5R)-3,5-dimethylpiperazin-1-yl)methyl)-2′-(thiomorpholinomethyl)biphenyl-3-yloxy)-5-fluoronicotinamido)cyclohexyl)-4-methylthiazole-2-carboxamide], 0.02 nM. For the compound `Cc1cc(C(=O)N[C@H]2CC[C@@H](NC(=O)c3cc(F)cnc3Oc3cccc(-c4cccc(CN5C[C@@H](C)N[C@@H](C)C5)c4)c3)CC2)nn1C` [Example 72, N-((1s,4s)-4-(1,5-dimethyl-1H-pyrazole-3-carboxamido)cyclohexyl)-2-(3′-(((3S,5R)-3,5-dimethylpiperazin-1-yl)methyl)biphenyl-3-yloxy)-5-fluoronicotinamide], the IC50 is 0.0631 nM. Regarding `Cc1nc(C(=O)N[C@H]2CC[C@@H](NC(=O)c3cc(F)cnc3Oc3cccc(-c4cc(O)cc(CN5C[C@@H](C)N[C@@H](C)C5)c4)c3)CC2)cs1` [Example 65, N-((1s,4s)-4-(2-(3′-(((3R,5S)-3,5-dimethylpiperazin-1-yl)methyl)-5′-hydroxybiphenyl-3-yloxy)-5-fluoronicotinamido)cyclohexyl)-2-methylthiazole-4-carboxamide], the IC50 was 0.0398 nM.

Take `Cc1nc(C(=O)N[C@H]2CC[C@@H](NC(=O)c3cc(F)cnc3Oc3cccc(-c4ccc(O)cc4CN4CCN(C(C)C)CC4)c3)CC2)cs1` [Example 25, N-((1s,4s)-4-(5-fluoro-2-(4′-hydroxy-2′-((4-isopropylpiperazin-1-yl)methyl)biphenyl-3-yloxy)nicotinamido)cyclohexyl)-2-methylthiazole-4-carboxamide]: the IC50 was 3.16 nM.

On to `Cc1cc(C(=O)N[C@H]2CC[C@@H](NC(=O)c3cc(F)cnc3Oc3cccc(-c4ccc(CCN5CCN(C(C)C)CC5)cc4)c3)CC2)nn1C` [Example 83, N-((1s,4s)-4-(1,5-dimethyl-1H-pyrazole-3-carboxamido)cyclohexyl)-5-fluoro-2-(4′-(2-(4-isopropylpiperazin-1-yl)ethyl)biphenyl-3-yloxy)nicotinamide], for which the IC50 is 0.0251 nM. For the compound `Cc1nc(C(=O)N[C@H]2CC[C@@H](NC(=O)c3cc(F)cnc3Oc3cccc(-c4ccc(CN5CCOCC5)cc4O)c3)CC2)cs1` [Example 56, N-((1s,4s)-4-(5-fluoro-2-(2′-hydroxy-4′-(morpholinomethyl)biphenyl-3-yloxy)nicotinamido)cyclohexyl)-2-methylthiazole-4-carboxamide], the IC50 was 0.0251 nM. In the case of `Cc1cc(C(=O)N[C@H]2CC[C@@H](NC(=O)c3cc(F)cnc3Oc3cccc(-c4cccc(CN5C[C@@H](C)N[C@@H](C)C5)c4O)c3)CC2)nn1C` [Example 78, N-((1s,4s)-4-(1,5-dimethyl-1H-pyrazole-3-carboxamido)cyclohexyl)-2-(3′-(((3R,5S)-3,5-dimethylpiperazin-1-yl)methyl)-2′-hydroxybiphenyl-3-yloxy)-5-fluoronicotinamide], the IC50 was 0.0794 nM. Then `O=C(N[C@H]1CC[C@@H](NC(=O)c2cc(F)cnc2Oc2cccc(-c3ccc(O)cc3CN3CCOCC3)c2)CC1)c1ccc(O)cc1` [Example 31, 5-fluoro-2-(4′-hydroxy-2′-(morpholinomethyl)biphenyl-3-yloxy)-N-((1s,4s)-4-(4-hydroxybenzamido)cyclohexyl)nicotinamide], with 0.501 nM; and `C[C@@H]1CN(CCCc2ccc(-c3cccc(Oc4ncc(F)cc4C(=O)N[C@H]4CC[C@@H](NC(=O)c5ccn(C)n5)CC4)c3)cc2)C[C@H](C)N1` [Example 165, 2-(4′-(3-((3S,5R)-3,5-Dimethylpiperazin-1-yl)propyl)biphenyl-3-yloxy)-5-fluoro-N-((1s,4s)-4-(1-methyl-1H-pyrazole-3-carboxamido)cyclohexyl)nicotinamide], with 0.0631 nM. For the compound `Cc1nc(C(=O)N[C@H]2CC[C@@H](NC(=O)c3cc(F)cnc3Oc3cccc(-c4ccc(CN5C[C@@H](C)N[C@@H](C)C5)c(O)c4)c3)CC2)cs1` [Example 98, N-((1s,4s)-4-(2-(4′-(((3S,5R)-3,5-dimethylpiperazin-1-yl)methyl)-3′-hydroxybiphenyl-3-yloxy)-5-fluoronicotinamido)cyclohexyl)-2-methylthiazole-4-carboxamide], the IC50 was 0.1 nM. Regarding `Cc1nc(C(=O)N[C@H]2CC[C@@H](NC(=O)c3cc(F)cnc3Oc3cccc(-c4ccc(CCN5CCNCC5)cc4)c3)CC2)cs1` [Example 177, N-((1s,4s)-4-(5-Fluoro-2-(4′-(2-(piperazin-1-yl)ethyl)biphenyl-3-yloxy)nicotinamido)cyclohexyl)-2-methylthiazole-4-carboxamide], the IC50 is 0.0501 nM. Consider `Cn1ccc(C(=O)N[C@H]2CC[C@@H](NC(=O)c3cc(F)cnc3Oc3cccc(-c4ccc(O)cc4CN4CCOCC4)c3)CC2)n1` [Example 49, 5-fluoro-2-(4′-hydroxy-2′-(morpholinomethyl)biphenyl-3-yloxy)-N-((1s,4s)-4-(1-methyl-1H-pyrazole-3-carboxamido)cyclohexyl)nicotinamide], for which the IC50 is 0.0251 nM. Then `Cc1cc(C(=O)N[C@H]2CC[C@@H](NC(=O)c3cc(F)cnc3Oc3cccc(-c4cccc(CCCN5CCN[C@@H](C)C5)c4)c3)CC2)nn1C` [Example 139, N-((1s,4s)-4-(1,5-dimethyl-1H-pyrazole-3-carboxamido)cyclohexyl)-5-fluoro-2-(3′-(3-((S)-3-methylpiperazin-1-yl)propyl)biphenyl-3-yloxy)nicotinamide], with 0.0794 nM; and `Cc1cccc2nc(C(=O)N[C@H]3CC[C@@H](NC(=O)c4cc(F)cnc4Oc4cccc(-c5ccc(CCCNC(C)C)cc5)c4)CC3)cn12` [Example 116, N-((1s,4s)-4-(5-fluoro-2-(4′-(3-(isopropylamino)propyl)biphenyl-3-yloxy)nicotinamido)cyclohexyl)-5-methylimidazo[1,2-a]pyridine-2-carboxamide], with 0.0316 nM. Turning to `C[C@@H]1CN(CCCc2cccc(-c3cccc(Oc4ncc(F)cc4C(=O)N[C@H]4CC[C@@H](NC(=O)c5cc6n(n5)CCCC6)CC4)c3)c2)C[C@H](C)N1` [Example 174, N-((1s,4s)-4-(2-(3′-(3-((3S,5R)-3,5-Dimethylpiperazin-1-yl)propyl)biphenyl-3-yloxy)-5-fluoronicotinamido)cyclohexyl)-4,5,6,7-tetrahydropyrazolo[1,5-a]pyridine-2-carboxamide], the IC50 is 0.1 nM. Consider `Cc1cccc2nc(C(=O)N[C@H]3CC[C@@H](NC(=O)c4cc(F)cnc4Oc4cccc(-c5ccc(CN6C[C@@H](C)N[C@@H](C)C6)cc5CN5CCOC[C@@H]5C)c4)CC3)cn12` [Example 175, N-((1s,4s)-4-(2-(4′-(((3S,5R)-3,5-Dimethylpiperazin-1-yl)methyl)-2′-(((S)-3-methylmorpholino)methyl)biphenyl-3-yloxy)-5-fluoronicotinamido)cyclohexyl)-5-methylimidazo[1,2-a]pyridine-2-carboxamide], for which the IC50 is 0.02 nM.
